Literature values, collected in patent US7153888B2, “Stabilization of benzoyl peroxide in solution” (Alpharx Inc., priority 2004, dated 2006).

What was measured:
[1] = not given; remark: listed apart in the source

O=C(OOC(=O)c1ccccc1)c1ccccc1 [benzoyl peroxide]
stability by solvent (in PEG 400): least stable | time until destroyed (in the presence of ethanol and acidic chelating agents, stored at 30° C. or 40° C.): ≤ 1 month | first-order K value of decomposition (polyethylene glycol ointment base, 24° C.): 0.028 day⁻¹ | half-life (50% content decrease) (pure BP in different solvents, room temperature): 151 to 6380 h | potency of benzoyl peroxide suspension (decrease from 5%) (suspension in polyethylene glycol ointment base, 50° C., 5 days): less than 1% | solubility ([1]; common solvents such as alcohol, PEG and propylene glycol): below 20 mg/ml | drop of solubility ([1]; water-miscible solvent, water content grows from 0 to 25%): 2–4 orders of magnitude
